Two compounds from patent publication US6136801A, “Therapeutic agent with quantitative consumption marker” (U. D. Testing, Inc., priority 1998, dated 2000) can be followed below.

A short description of data set [1]: Normalized urine compliance marker (diazepam) concentration in patients, FPIA, normalized to urine SG 1.030 and 154 lbs body weight. Particulars: diazepam 2 mg p.o. q12h.
Data set [2] in a line: Renal excretion rates as a function of urine volume production rate. It counts as in vivo, human. The method, then: This constancy has now been experimentally verified by examining the renal excretion rates of methadone, benzodiazepines, other drugs and creatinine and other endogenous metabolites as a function of urine volume production rate. For example, sequential, complete and timed (1-8 hours holding periods) aliquots of urine for 12 compliant control subjects were collected over 24 to 72 hour periods. For each urine aliquot, urine volume production rate (ml/min), specific gravity and creatinine concentration (mg/dl) (as the tested substance) were determined.

For the compound `CN1C(=O)CN=C(c2ccccc2)c2cc(Cl)ccc21` [diazepam], the “MEAN NU FOR […]” value is listed as 500 (SD 90, CV 18%) in data set [1] (Experiment #1, patient P-1, methadone 30 mg p.o. q12h) and 499 (SD 73, CV 15%) in data set [1] (Experiment #1, patient P-3, methadone 30 mg p.o. q12h).

As for `CCC(=O)C(CC(C)N(C)C)(c1ccccc1)c1ccccc1` (stereo not drawn) [methadone], the “renal excretion rates during a typical day” value in data set [2] was “relatively constant”.
